# Data as given in patent US8497276B2, “Substituted indolo-piperidine compounds” (ArQule, Inc., priority 2009, dated 2013).
# Key:
# DLD-1 = experiment: MTS Assay (cell growth inhibition), DLD-1; format: cell-based; details: DLD-1 cells, 72 hours with test compound; concentration not given
# Procedure: (§1) Cells were maintained at 37° C., 5% CO2 in DMEM media supplemented with 1% fetal bovine serum, penicillin/streptomycin and fungizone (Invitrogen). Cells were seeded into 96-well tissue culture plates at 3000 per well and cultured at 37° C. for 18 hours. Test compounds were dissolved and diluted to 300× in DMSO then diluted 1:40 in DMEM. Cells were incubated with test compounds for 72 hours followed by incubation with tetrazolium compound (3-(4,5-dimethylthiazol-2-yl)-5-(3-carboxymethoxyphenyl)-2-(4-sulfophenyl)-2H-tetrazolium, inner salt; MTS) and the electron coupling reagent, phenazine methosulfate (PMS) for 4 hours. […] The ability of compounds to inhibit cell growth in this assay is correlated with the reduction of dehydrogenase enzyme activity found in metabolically active cells. The measurement of the absorbance of the formazan was assessed using an ENVISION™ (Perkin Elmer) microplate reader at 492 nm. The calculated IC50 value is the concentration of the test compound that causes a 50% decrease in the absorbance.
# PACA-2 = experiment: MTS Assay (cell growth inhibition), PACA-2; format: cell-based; details: PACA-2 cells, 72 hours with test compound; concentration not given
# Procedure: as §1
# Kato III = experiment: MTS Assay (cell growth inhibition), Kato III; format: cell-based; details: Kato III cells, 72 hours with test compound; concentration not given
# Procedure: as §1
# NCI-H1299 = experiment: MTS Assay (cell growth inhibition), NCI-H1299; format: cell-based; details: NCI-H1299 cells, 72 hours with test compound; concentration not given
# Procedure: as §1
# MDA-MB 231 = experiment: MTS Assay (cell growth inhibition), MDA-MB 231; format: cell-based; details: MDA-MB 231 cells, 72 hours with test compound; concentration not given
# Procedure: as §1
# PC-3 = experiment: MTS Assay (cell growth inhibition), PC-3; format: cell-based; details: PC-3 cells, 72 hours with test compound; concentration not given
# Procedure: as §1
# Tec kinase = target: T1, Tec kinase (Homo sapiens, UniProt P42680); experiment: Tec Kinase Activity Assay; format: biochemical; details: 75 μM ATP, Pyk-2 substrate; compound concentration not given
# T1 sequence (P42680 1-631): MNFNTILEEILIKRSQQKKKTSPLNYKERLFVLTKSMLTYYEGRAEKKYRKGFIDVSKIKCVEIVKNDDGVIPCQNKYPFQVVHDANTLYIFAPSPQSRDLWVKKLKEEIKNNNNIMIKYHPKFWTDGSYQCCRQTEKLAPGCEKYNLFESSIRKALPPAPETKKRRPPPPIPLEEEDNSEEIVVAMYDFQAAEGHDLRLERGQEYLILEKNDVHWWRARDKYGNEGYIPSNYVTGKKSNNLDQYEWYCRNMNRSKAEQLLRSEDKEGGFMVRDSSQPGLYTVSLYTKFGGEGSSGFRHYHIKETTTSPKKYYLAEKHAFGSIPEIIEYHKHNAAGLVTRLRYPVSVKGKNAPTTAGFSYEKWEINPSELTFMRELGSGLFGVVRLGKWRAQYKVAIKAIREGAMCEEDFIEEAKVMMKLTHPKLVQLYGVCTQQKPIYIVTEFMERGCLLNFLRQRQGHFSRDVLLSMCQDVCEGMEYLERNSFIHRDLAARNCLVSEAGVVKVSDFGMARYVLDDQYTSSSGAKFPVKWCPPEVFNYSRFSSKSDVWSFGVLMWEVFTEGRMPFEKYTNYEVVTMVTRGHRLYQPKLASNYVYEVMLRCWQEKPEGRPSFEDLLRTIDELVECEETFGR
# Procedure: The disclosed compounds were assayed for their ability to inhibit the activity of Tec kinase. Nunc Maxisorb plates were coated with streptavidin by overnight incubation with 100 μl per well of 1 μg/ml Streptavidin in DPBS. Prior to the start of the experiment, the plates were washed with TBST (3×200 μl) and blocked for at least 1 hour by adding 150 μl of 5% BSA/TBST. The plates were then washed with TBST (3×200 μl/well) and left dry immediately before the capture step.
# The disclosed test compounds and controls (Staurosporine and Sutent) were prepared using the following assay buffer (50 mM Tris-HCl, 0.02 mg/ml BSA, 10 mM MgCl2, 0.1 mM Na3VO4, 1 mM EGTA, 75 μM ATP, 0.01% NP-40, 2 mM DTT in 10% glycerol/water) at 3× desired final concentration. 20 μl of the test compounds (or control) and 20 μl TEC (0.25 ng/μl) were rapidly added to a reaction plate. The plate was incubated for 30 minutes. 20 μl of Pyk-2 (0.5 ng/μl) was then added to the reaction plate. The plate was incubated at room temperature for two hours.
# 50 μl was transferred from the reaction plate to the streptavidin coated plate. The capture plate was incubated at room temperature for 30 minutes then washed with TBST 6 times. 100 μl/well of Cell Signaling anti-phospho tyrosine was added to the capture plate at a dilution of 1:3000 in 2% BSA/TBST. The plate was incubated for one hour at room temperature then washed with TBST 6 times. 100 μl/well of alkaline phosphatase tagged goat anti-mouse antibody was added to the capture plate at a dilution of 1:4000 in 2% BSA/TBST. The plate was incubated for one hour at room temperature then washed with TBST 6 times.
# The fluorescent readout was initiated by the addition of 100 μl/well of Attophos reagent (6 mg/10 ml) and the reading was done on the Perkin Elmer Envision system.
smiles,measurement,setting,value
"Brc1n[nH]c2ncnc(N3CCc4c([nH]c5ccccc45)C3)c12 [Compound 1, 2-(3-bromo-1H-pyrazolo[3,4-d]pyrimidin-4-yl)-2,3,4,9-tetrahydro-1H-beta-carboline]",MTS cell kill data (% inhibition) DLD-1,DLD-1,B (B = 50-79% inhibition)
same,MTS cell kill data (% inhibition) PACA-2,PACA-2,B (B = 50-79% inhibition)
same,MTS cell kill data (% inhibition) Kato III,Kato III,A (A = 80-100% inhibition)
same,MTS cell kill data (% inhibition) NCI-H1299,NCI-H1299,B (B = 50-79% inhibition)
same,MTS cell kill data (% inhibition) MDA-MB 231,MDA-MB 231,C (C = <50% inhibition)
same,MTS cell kill data (% inhibition) PC-3,PC-3,C (C = <50% inhibition)
"Fc1c(Cl)cccc1C1c2[nH]c3ccccc3c2CCN1c1ncnc2[nH]ccc12 (stereo not drawn) [Compound 2, 1-(3-chloro-2-fluorophenyl)-2-(7H-pyrrolo[2,3-d]pyrimidin-4-yl)-2,3,4,9-tetrahydro-1H-beta-carboline]",MTS cell kill data (% inhibition) DLD-1,DLD-1,A (A = 80-100% inhibition)
same,MTS cell kill data (% inhibition) PACA-2,PACA-2,A (A = 80-100% inhibition)
same,Biochemical IC50 (% inhibition) Tec,Tec kinase,C (C = <50% inhibition)
same,MTS cell kill data (% inhibition) Kato III,Kato III,A (A = 80-100% inhibition)
same,MTS cell kill data (% inhibition) NCI-H1299,NCI-H1299,A (A = 80-100% inhibition)
same,MTS cell kill data (% inhibition) MDA-MB 231,MDA-MB 231,A (A = 80-100% inhibition)
same,MTS cell kill data (% inhibition) PC-3,PC-3,A (A = 80-100% inhibition)
"Fc1c(Cl)cccc1C1c2[nH]c3ccccc3c2CCN1c1ncnc2[nH]cnc12 (stereo not drawn) [Compound 3, 1-(3-chloro-2-fluorophenyl)-2-(9H-purin-6-yl)-2,3,4,9-tetrahydro-1H-beta-carboline]",MTS cell kill data (% inhibition) DLD-1,DLD-1,B (B = 50-79% inhibition)
same,MTS cell kill data (% inhibition) PACA-2,PACA-2,C (C = <50% inhibition)
same,Biochemical IC50 (% inhibition) Tec,Tec kinase,C (C = <50% inhibition)
same,MTS cell kill data (% inhibition) Kato III,Kato III,B (B = 50-79% inhibition)
same,MTS cell kill data (% inhibition) NCI-H1299,NCI-H1299,B (B = 50-79% inhibition)
same,MTS cell kill data (% inhibition) MDA-MB 231,MDA-MB 231,C (C = <50% inhibition)
same,MTS cell kill data (% inhibition) PC-3,PC-3,C (C = <50% inhibition)
"Fc1ccc(C2c3[nH]c4ccccc4c3CCN2c2ncnc3[nH]ccc23)cc1 (stereo not drawn) [Compound 4, 1-(4-fluorophenyl)-2-(7H-pyrrolo[2,3-d]pyrimidin-4-yl)-2,3,4,9-tetrahydro-1H-beta-carboline]",MTS cell kill data (% inhibition) DLD-1,DLD-1,B (B = 50-79% inhibition)
same,MTS cell kill data (% inhibition) PACA-2,PACA-2,B (B = 50-79% inhibition)
same,Biochemical IC50 (% inhibition) Tec,Tec kinase,B (B = 50-79% inhibition)
same,MTS cell kill data (% inhibition) Kato III,Kato III,B (B = 50-79% inhibition)
same,MTS cell kill data (% inhibition) NCI-H1299,NCI-H1299,B (B = 50-79% inhibition)
same,MTS cell kill data (% inhibition) MDA-MB 231,MDA-MB 231,C (C = <50% inhibition)
same,MTS cell kill data (% inhibition) PC-3,PC-3,C (C = <50% inhibition)
"Fc1ccc(C2c3[nH]c4ccccc4c3CCN2c2ncnc3[nH]cnc23)cc1 (stereo not drawn) [Compound 5, 1-(4-fluorophenyl)-2-(9H-purin-6-yl)-2,3,4,9-tetrahydro-1H-beta-carboline]",MTS cell kill data (% inhibition) DLD-1,DLD-1,C (C = <50% inhibition)
same,MTS cell kill data (% inhibition) PACA-2,PACA-2,C (C = <50% inhibition)
same,Biochemical IC50 (% inhibition) Tec,Tec kinase,C (C = <50% inhibition)
same,MTS cell kill data (% inhibition) Kato III,Kato III,A (A = 80-100% inhibition)
same,MTS cell kill data (% inhibition) NCI-H1299,NCI-H1299,B (B = 50-79% inhibition)
same,MTS cell kill data (% inhibition) MDA-MB 231,MDA-MB 231,A (A = 80-100% inhibition)
same,MTS cell kill data (% inhibition) PC-3,PC-3,A (A = 80-100% inhibition)
"Fc1ccc(C2c3[nH]c4ccccc4c3CCN2c2ncnc3[nH]ncc23)cc1 (stereo not drawn) [Compound 6, 1-(4-fluorophenyl)-2-(1H-pyrazolo[3,4-d]pyrimidin-4-yl)-2,3,4,9-tetrahydro-1H-beta-carboline]",MTS cell kill data (% inhibition) DLD-1,DLD-1,B (B = 50-79% inhibition)
same,MTS cell kill data (% inhibition) PACA-2,PACA-2,B (B = 50-79% inhibition)
same,Biochemical IC50 (% inhibition) Tec,Tec kinase,B (B = 50-79% inhibition)
same,MTS cell kill data (% inhibition) Kato III,Kato III,A (A = 80-100% inhibition)
same,MTS cell kill data (% inhibition) NCI-H1299,NCI-H1299,B (B = 50-79% inhibition)
same,MTS cell kill data (% inhibition) MDA-MB 231,MDA-MB 231,A (A = 80-100% inhibition)
same,MTS cell kill data (% inhibition) PC-3,PC-3,C (C = <50% inhibition)
"Nc1nc(N2CCc3c([nH]c4ccccc34)C2c2cccc(C(F)(F)F)c2)c2cn[nH]c2n1 (stereo not drawn) [Compound 7, 4-{1-[3-(trifluoromethyl)phenyl]-1,3,4,9-tetrahydro-2H-beta-carbolin-2-yl}-1H-pyrazolo[3,4-d]pyrimidin-6-amine]",MTS cell kill data (% inhibition) DLD-1,DLD-1,C (C = <50% inhibition)
same,MTS cell kill data (% inhibition) PACA-2,PACA-2,C (C = <50% inhibition)
same,Biochemical IC50 (% inhibition) Tec,Tec kinase,C (C = <50% inhibition)
same,MTS cell kill data (% inhibition) Kato III,Kato III,C (C = <50% inhibition)
same,MTS cell kill data (% inhibition) NCI-H1299,NCI-H1299,C (C = <50% inhibition)
same,MTS cell kill data (% inhibition) MDA-MB 231,MDA-MB 231,B (B = 50-79% inhibition)
same,MTS cell kill data (% inhibition) PC-3,PC-3,A (A = 80-100% inhibition)
"FC(F)(F)c1cccc(C2c3[nH]c4ccccc4c3CCN2c2ncnc3[nH]cnc23)c1 (stereo not drawn) [Compound 8, 2-(9H-purin-6-yl)-1-[3-(trifluoromethyl)phenyl]-2,3,4,9-tetrahydro-1H-beta-carboline]",MTS cell kill data (% inhibition) DLD-1,DLD-1,A (A = 80-100% inhibition)
same,MTS cell kill data (% inhibition) PACA-2,PACA-2,B (B = 50-79% inhibition)
same,Biochemical IC50 (% inhibition) Tec,Tec kinase,C (C = <50% inhibition)
same,MTS cell kill data (% inhibition) Kato III,Kato III,A (A = 80-100% inhibition)
same,MTS cell kill data (% inhibition) NCI-H1299,NCI-H1299,A (A = 80-100% inhibition)
same,MTS cell kill data (% inhibition) MDA-MB 231,MDA-MB 231,A (A = 80-100% inhibition)
same,MTS cell kill data (% inhibition) PC-3,PC-3,A (A = 80-100% inhibition)
"FC(F)(F)c1cccc(C2c3[nH]c4ccccc4c3CCN2c2ncnc3[nH]ncc23)c1 (stereo not drawn) [Compound 9, 2-(1H-pyrazolo[3,4-d]pyrimidin-4-yl)-1-[3-(trifluoromethyl)phenyl]-2,3,4,9-tetrahydro-1H-beta-carboline]",MTS cell kill data (% inhibition) DLD-1,DLD-1,B (B = 50-79% inhibition)
same,MTS cell kill data (% inhibition) PACA-2,PACA-2,B (B = 50-79% inhibition)
same,Biochemical IC50 (% inhibition) Tec,Tec kinase,B (B = 50-79% inhibition)
same,MTS cell kill data (% inhibition) Kato III,Kato III,B (B = 50-79% inhibition)
same,MTS cell kill data (% inhibition) NCI-H1299,NCI-H1299,B (B = 50-79% inhibition)
same,MTS cell kill data (% inhibition) MDA-MB 231,MDA-MB 231,B (B = 50-79% inhibition)
same,MTS cell kill data (% inhibition) PC-3,PC-3,C (C = <50% inhibition)
"Cc1cccc(C2c3[nH]c4ccccc4c3CCN2c2ncnc3[nH]ccc23)c1 (stereo not drawn) [Compound 10, 1-(3-methylphenyl)-2-(7H-pyrrolo[2,3-d]pyrimidin-4-yl)-2,3,4,9-tetrahydro-1H-beta-carboline]",MTS cell kill data (% inhibition) DLD-1,DLD-1,B (B = 50-79% inhibition)
same,MTS cell kill data (% inhibition) PACA-2,PACA-2,B (B = 50-79% inhibition)
same,Biochemical IC50 (% inhibition) Tec,Tec kinase,C (C = <50% inhibition)
same,MTS cell kill data (% inhibition) Kato III,Kato III,B (B = 50-79% inhibition)
same,MTS cell kill data (% inhibition) NCI-H1299,NCI-H1299,B (B = 50-79% inhibition)
same,MTS cell kill data (% inhibition) MDA-MB 231,MDA-MB 231,C (C = <50% inhibition)
same,MTS cell kill data (% inhibition) PC-3,PC-3,C (C = <50% inhibition)
